# Entries after “also recorded” stand apart in the source; their conditions may differ. Where a name gives a salt, the structure may show the parent alone.
# Columns and labels:
# [1] = tested on: nephritis of acute serum sickness; conditions: Clin. Exp. Immunol., Vol. 61, 388-396 (1985); cited from earlier work
# [2] = tested on: GVHR-induced nephritis (proteinuria) in BDF1 mice; assay: GVHR-induced proteinuria in mouse (urinary protein by modified one step Exton method); assay type: in vivo
# Description: (§1) When an animal of a first filial generation is implanted with lymphatic cells of its parent's line, a graft-versus-host reaction (hereinafter abbreviated as GVHR) takes place to thereby produce an auto-antibody and induce chronic immune-complex (IC) type nephritis.
# (§2) The present invention will now be illustrated by way of experiment examples. In these examples, the drug of interest was dissolved in a 0.5 wt% aqueous solution of carboxymethyl cellulose and administered to test animals in an amount of 0.1 ml per 10 g of the body weight.
# (§3) Into BDF1 mice (female; 7-week-old; Nippon Charles River) were intravenously implanted twice spleen cells (6×10^7 cells) and thymus cells (3×10^7 cells) taken from DBA/2 mice (female; 7-week-old; Nippon Charles River) of their parent's line on the 0 day and the 5th day to thereby induce GVHR. DN-9693 was orally given at a dose level of 1 mg/kg in a single dose per day for consecutive 44 days from the 6th day to the 49th day. After 2 weeks from the first implantation of cells, the protein in urine and the anti-erythrocyte antibody titre were determined at one week intervals. The protein in urine and the antibody titre were determined by the modified one step Exton method and the direct Coombs' test method, respectively, in accordance with the following procedures:
# Modified One Step Exton Method
# 1. Test urine and an albumin standard preparation were placed in a microplate in 10 μl portions.
# 2. To each hole was added 200 μl of a reagent prepared by dissolving 15 g of sulfosalicylic acid, 20 g of anhydrous sodium sulfate, 5 mg of Bromophenol Blue, and 0.1 g of carboxymethyl cellulose in one liter of water. After stirring to mix, the system was allowed to stand at room temperature.
# 3. Ten minutes later, the absorbance at 690 nm was measured using the system comprising the reagent alone as a blank.
# 4. The protein in urine was calculated from a calibration curve.
# [3] = tested on: lupus nephritis (proteinuria) in NZB/WF1 mice; assay: Urinary protein in NZB/WF1 mouse (spontaneous lupus nephritis); assay type: in vivo
# Description: as §2
# Ten animals clearly showing proteinuria were chosen from 32-week-old NZB/WF1 mice (female, Jackson) and divided into two groups (5 animals per group) taking the protein level in urine as a guide.
# DN-9693 was continuously administered orally one or two times per day at a dose of 1 mg/kg, and influences on changes of urinary protein level were examined.
# Thus, the activity to lower protein in urine was recognized also in spontaneously occurring lupus nephritis.
# [4] = tested on: anti-erythrocyte antibody (auto-antibody) in BDF1 mice; assay: Auto-antibody production in mouse induced by GVHR (anti-erythrocyte antibody titre, direct Coombs' test); assay type: in vivo
# Description: as §1, §2, §3
# Direct Coombs' Test Method
# 1. Blood samples (50 μl) were obtained from the orbital veniplex of the experimental animals (mice) using a heparinized hematocrit tube.
# 2. The erythrocytes were washed three times by centrifugation (2,500 r.p.m. for 6 minutes) with a phosphoric acid-buffered physiological saline containing 0.3 wt% bovine serum albumin (0.3% BSA-PBS).
# 3. The erythrocytes were suspended in 0.3% BSA-PBS to prepare a 1 wt% mouse erythrocyte suspension.
# 4. The erythrocyte suspension (50 μl) was added to 50 μl of rabbit anti-mouse Ig (MBL) in a two-fold serial dilution placed in a microplate. After shaking, the system was allowed to stand at 37° C. for 1 hour and then at room temperature for 2 hours. The state of agglutination was observed.
# 5. The maximum dilution of the rabbit anti-mouse Ig that gave a positive agglutination was expressed as 10×2^n, and the value n was taken as an antibody titre.
# [5] = 1 mg/kg p.o., in words, monohydrate
SMILES,Protection of nephritis [1],"Effect on urinary protein (GVHR-induced nephritis) [2, 5]","Urinary Protein Score (Mean ± S.E.), 4th Week ([2]; DN-9693 1 mg/kg p.o. once daily day 6-49, n=7, 4th week from first cell implantation, control 0.2 ± 0.1, score 0 (<=1 mg/ml) to 4 (>=30 mg/ml and ascitic positive))","Urinary Protein Score (Mean ± S.E.), 5th Week ([2]; DN-9693 1 mg/kg p.o. once daily day 6-49, n=7, 5th week from first cell implantation, control 0.8 ± 0.4, score 0 to 4)","Urinary Protein Score (Mean ± S.E.), 6th Week ([2]; DN-9693 1 mg/kg p.o. once daily day 6-49, n=7, 6th week from first cell implantation, control 1.8 ± 0.7, score 0 to 4)","Urinary Protein Score (Mean ± S.E.), 7th Week ([2]; DN-9693 1 mg/kg p.o. once daily day 6-49, n=7, 7th week from first cell implantation, control 2.3 ± 0.6, S.E. 0.4 printed on next line, significantly different from control (P < 0.05), score 0 to 4)","Effect on urinary protein (spontaneous lupus nephritis) ([3]; 1 mg/kg p.o. one or two times per day, in words, monohydrate)","Number of survivors, 0 Week (32) ([3]; of 5 animals, 0 week, control 5)","Number of survivors, 1 Week (33) ([3]; of 5 animals, 1 week, control 5)","Number of survivors, 2 Weeks (34) ([3]; of 5 animals, 2 weeks, control 4)","Urinary Protein Index (Mean ± S.E.), 0 Week (32) ([3]; protein level after/before administration, 1 mg/kg p.o. one or two times per day, 0 week (32-week-old), control 1.0)","Urinary Protein Index (Mean ± S.E.), 1 Week (33) ([3]; protein level after/before administration, 1 mg/kg p.o. one or two times per day, 1 week (33-week-old), control 7.0 ± 5.9)","Urinary Protein Index (Mean ± S.E.), 2 Weeks (34) ([3]; protein level after/before administration, 1 mg/kg p.o. one or two times per day, 2 weeks (34-week-old), control 4.8 ± 2.9)","Anti-Erythrocyte Antibody Titre (Mean ± S.E.), 3rd Week ([4]; 1 mg/kg p.o. once daily day 6-49, n=7, titre n: 10 × 2^n, 3rd week from first cell implantation, control 6.3 ± 1.0)","Anti-Erythrocyte Antibody Titre (Mean ± S.E.), 4th Week ([4]; 1 mg/kg p.o. once daily day 6-49, n=7, titre n: 10 × 2^n, 4th week from first cell implantation, control 5.4 ± 0.6)","Anti-Erythrocyte Antibody Titre (Mean ± S.E.), 5th Week ([4]; 1 mg/kg p.o. once daily day 6-49, n=7, titre n: 10 × 2^n, 5th week from first cell implantation, control 4.9 ± 1.3)","Anti-Erythrocyte Antibody Titre (Mean ± S.E.), 6th Week ([4]; 1 mg/kg p.o. once daily day 6-49, n=7, titre n: 10 × 2^n, 6th week from first cell implantation, control 2.9 ± 1.5)","Anti-Erythrocyte Antibody Titre (Mean ± S.E.), 7th Week ([4]; 1 mg/kg p.o. once daily day 6-49, n=7, titre n: 10 × 2^n, 7th week from first cell implantation, control 1.9 ± 1.2)","Influence on production of auto-antibody / immune inhibitory activity [4, 5]"
"N=C(N)c1ccc2cc(OC(=O)c3ccc(N=C(N)N)cc3)ccc2c1 [FUT-175, dihydrochloride]",protection of nephritis,–,–,–,–,–,–,–,–,–,–,–,–,–,–,–,–,–,–
"O=C1CN2Cc3cc(N4CCCCC4)ccc3N=C2N1 [DN-9693, 7-piperidino-1,2,3,5-tetrahydroimidazo[2,1-b]quinazolin-2-onedihydrochloride monohydrate]",–,exhibited an effect to decrease protein in urine; also recorded: urinary protein decreasing effect; also recorded: significantly inhibits an increase of urinary protein,0.3 ± 0.1,0.1 ± 0.1,0.4 ± 0.4,0.6,the increase of urinary protein level is inhibited; also recorded: reduction of protein in the urine,5,5,5,1.1,1.2 ± 0.2,1.6 ± 0.6,6.6 ± 0.6,5.6 ± 0.2,3.6 ± 1.1,3.9 ± 1.1,3.1 ± 1.0,did not influence the production of an auto-antibody; also recorded: possesses no immune inhibitory activity; also recorded: does not decrease the Coombs antibody titre
"OCCN(CCO)c1nc(N2CCCCC2)c2nc(N(CCO)CCO)nc(N3CCCCC3)c2n1 [dipyridamole, 2,6-bis(diethanolamino)-4,8-dipiperidinopyrimido[5,4,-d]pyrimidine]",protection of nephritis,–,–,–,–,–,–,–,–,–,–,–,–,–,–,–,–,–,–
